One compound from article PMC8012715, “Mechanism of NanR gene repression and allosteric induction of bacterial sialic acid metabolism” (Nature Communications, 2021) can be followed below.

This assay concerns the target T1, NanR (Escherichia coli, UniProt P0A8W0).
T1 construct: crystals by in situ chymotrypsin proteolysis
T1 sequence (P0A8W0 1-263): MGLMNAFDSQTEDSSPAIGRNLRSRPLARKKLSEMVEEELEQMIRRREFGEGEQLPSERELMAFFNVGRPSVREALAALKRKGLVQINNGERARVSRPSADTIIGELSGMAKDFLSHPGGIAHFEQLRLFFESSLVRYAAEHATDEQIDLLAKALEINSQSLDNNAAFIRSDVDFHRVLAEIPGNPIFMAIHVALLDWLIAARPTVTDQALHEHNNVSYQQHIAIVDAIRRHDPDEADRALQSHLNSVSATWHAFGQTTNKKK
The assay can be described thus: isothermal titration calorimetry. The conditions noted are these: 20 mM Tris-HCl pH 8.0, 150 mM NaCl; 8 °C; no DNA; Zn2+-loaded protein; effector-binding domain; allosteric. A general note: Isothermal titration calorimetry measures the heat released or taken up as one component is titrated into another.

Broadly, the Kd is the constant that tells how readily two partners part at equilibrium. The low end stands for tighter binding, the high end for weaker binding. For the compound `CC(=O)N[C@H]1[C@H]([C@H](O)[C@H](O)CO)OC(O)(C(=O)O)C[C@@H]1O` (stereo partly shown) [Neu5Ac], binding was characterised by a dissociation constant (Kd) of 16 µM.
